Assay results as given in the NIST ThermoML archive (doi:10.1016/j.tca.2009.07.002).

Assay: xn = mol fraction of the nth substance listed
Conditions: 101 kPa, Liquid, Vibrating tube method

NC1CCCCC1 [cyclohexylamine] + CCCCO
mass density [kg/m3]
Conditions	288.15 K	293.15 K	298.15 K	303.15 K	308.15 K	313.15 K	318.15 K	323.15 K
x2 = 0	871.29	866.747	862.207	857.671	853.138	848.607	844.073	839.547
x2 = 0.0499	870.402	865.907	861.409	856.914	852.415	847.912	843.406	838.847
x2 = 0.1019	869.284	864.828	860.372	855.914	851.45	846.979	842.499	838.018
x2 = 0.1499	868.221	863.8	859.375	854.945	850.509	846.063	841.605	837.144
x2 = 0.1997	867.037	862.648	858.251	853.85	849.438	845.013	840.578	836.136
x2 = 0.2995	864.139	859.8	855.453	851.095	846.722	842.337	837.935	833.516
x2 = 0.4	860.506	856.206	851.899	847.581	843.244	838.892	834.521	830.136
x2 = 0.4994	855.958	851.708	847.444	843.167	838.874	834.561	830.229	825.872
x2 = 0.6006	850.147	845.964	841.767	837.554	833.322	829.067	824.783	820.478
x2 = 0.6977	843.134	839.036	834.924	830.791	826.637	822.458	818.247	814.01
x2 = 0.7497	838.964	834.921	830.861	826.78	822.671	818.541	814.376	810.181
x2 = 0.7984	834.505	830.511	826.498	822.464	818.404	814.315	810.191	806.034
x2 = 0.85	829.604	825.664	821.703	817.72	813.708	809.66	805.587	801.472
x2 = 0.8993	824.498	820.606	816.697	812.762	808.799	804.804	800.769	796.696
x2 = 0.9508	819.064	815.223	811.359	807.471	803.552	799.601	795.606	791.569
